We go through 58 compounds from patent US20260193236A1 (Protego Biopharma, Inc., priority 2022, published 2026).

One experiment deals with IRE1-XBP1s (XBP1-RLuc splicing reporter in HEK293 T-REx cells). Kind of experiment: IRE1-XBP1s activation assay (XBP1-RLuc splicing reporter, HEK293 T-REx cells, luminescence relative to thapsigargin). It is filed as cell-based. The note with it: 18 h, compound 10 μM, HEK293 T-REx XBP1-RLuc reporter cells, relative to thapsigargin (Tg) 500 nM, read-out: Activity (IRE1-XBP1s activation, luminescence as % signal relative to thapsigargin, % Tg). How it is done: IRE1-XBP1s activation Assay: HEK293 T-REx cells stably expressing the XBP1-RLuc splicing reporter were treated with an IRE1-XBP1s activator provided herein (10 μM) in the presence or absence of the IRE1 active site inhibitor 4μ8C (32 μM) for 18 h. Luminescence was shown as the percentage signal relative to thapsigargin (Tg) (500 nM, 18 h).
For `Cc1ccc(OCCN(C)C(=O)Cn2cc(NC(=O)CCNc3cc(F)ncc3F)cn2)cc1` [Compound 143], the activation at 10 µM is under 30%.

As for `Cc1ccc(OCCN(C)C(=O)Cn2cc(NC(=O)C(CNc3ccc(F)nc3C)C3CCCCC3)cn2)cc1` (stereo not shown) [Compound 219], the activation at 10 µM was 30 to 50%.

Consider `Cc1ccc(OCCN(C)C(=O)Cn2cc(NC(=O)CCNc3nccnc3Cl)cn2)cc1` [Compound 147], for which the activation at 10 µM is over 50%.

Consider `Cc1ccc(OCCC(=O)Nc2cnn(CC(=O)N(C)CCOc3ccc(C4CC4)cc3)c2)c(F)c1` [Compound 73], for which the activation at 10 µM was in the range of 30 to 50%.

Turning to `CC(C)c1cncc(F)c1OCCC(=O)Nc1cnn(CC(=O)N(C)CCOc2ccc(OC(F)(F)F)cn2)c1` [Compound 279], the activation at 10 µM is over 50%.

For `CC(=O)c1cncc(F)c1NCCC(=O)Nc1cnn(CC(=O)N(C)CCOc2ccc(C)cc2)c1` [Compound 232], the activation at 10 µM was over 50%.

Take `Cc1ccc(OCCN(C)C(=O)Cn2cc(NC(=O)CCNc3ncccc3Cl)cn2)cc1` [Compound 148]: the activation at 10 µM is 30 to 50%.

As for `Cc1nc(F)ccc1NCCC(=O)Nc1cnn(CC(=O)N(C)CCOc2ccn(C)n2)c1` [Compound 242], the activation at 10 µM was under 30%.

Take `Cc1ccc(OCCN(C)C(=O)Cn2cc(NC(=O)CCOc3c(F)cccc3F)cn2)cc1` [Compound 56]: the activation at 10 µM was over 50%.

For the compound `Cc1ccc(OCCN(C)C(=O)Cn2cc(NC(=O)CCOc3ncccc3[N+](=O)[O-])cn2)cc1` [Compound 113], the activation at 10 µM was over 50%.

Turning to `Cc1ccc(OCCN(C)C(=O)Cn2cc(NC(=O)CCNc3ncccc3C#N)cn2)cc1` [Compound 141], the activation at 10 µM was under 30%.

Take `COc1ccc(OCCC(=O)Nc2cnn(CC(=O)N(C)CCOc3ccc(C)cc3)c2)cc1` [Compound 42]: the activation at 10 µM lay in the range of 30 to 50%.

For the compound `Cc1ccc(OCCN(C)C(=O)Cn2cc(NC(=O)CCOc3cncnc3N)cn2)cc1` [Compound 117], the activation at 10 µM is under 30%.

Consider `Cc1ccc(OCCN(C)C(=O)Cn2cc(NC(=O)[C@@H](C)CNc3ccc(F)nc3C)cn2)cc1` [Compound 220], for which the activation at 10 µM lay in the range of 30 to 50%.

Take `CCc1cc(F)ccc1OCCC(=O)Nc1cnn(CC(=O)N(C)CCOc2ccc(C)cc2)c1` [Compound 59]: the activation at 10 µM is under 30%.

`Cc1ccc(OCCN(C)C(=O)Cn2cc(NC(=O)CCNc3cncc(N)n3)cn2)cc1` [Compound 122]: the activation at 10 µM is under 30%.

For the compound `Cc1ccc(OCCN(C)C(=O)Cn2cc(NC(=O)CCOc3ccccc3OC(F)(F)F)cn2)cc1` [Compound 54], the activation at 10 µM is 30 to 50%.

For the compound `CNc1nccc(OCCC(=O)Nc2cnn(CC(=O)N(C)CCOc3ccc(C)cc3)c2)n1` [Compound 106], the activation at 10 µM is over 50%.

`Cc1ccc(OCCN(C)C(=O)Cn2cc(NC(=O)CCNc3ccnc(F)n3)cn2)cc1` [Compound 136]: the activation at 10 µM was in the range of 30 to 50%.

Turning to `Cc1ccc(OCCN(C)C(=O)Cn2cc(NC(=O)CCOc3ccnc(NC(=O)OC(C)(C)C)c3)cn2)cc1` [Compound 101], the activation at 10 µM is over 50%.

In the case of `Cc1ccc(OCCN(C)C(=O)Cn2cc(NC(=O)CCNc3cc4c(cn3)OCO4)cn2)cc1` [Compound 291], the activation at 10 µM lay within 30 to 50%.

For `Cc1nnc(OCCN(C)C(=O)Cn2cc(NC(=O)CCNc3ccc(F)nc3C)cn2)s1` [Compound 247], the activation at 10 µM was under 30%.

Regarding `Cc1ccc(OCCN(C)C(=O)Cn2cc(NC(=O)CCOc3ccnc(N)c3)cn2)cc1` [Compound 104], the activation at 10 µM was over 50%.

Consider `Cc1ccc(OCCN(C)C(=O)Cn2cc(NC(=O)C(O)CNc3ncc(F)cn3)cn2)cc1` (stereo not shown) [Compound 163], for which the activation at 10 µM is under 30%.

As for `Cc1ccc(OCCN(C)C(=O)Cn2cc(NC(=O)CCNc3ncncc3C(C)C)cn2)cc1` [Compound 161], the activation at 10 µM was over 50%.

`Cc1ccc(OCCN(C)C(=O)Cn2cc(NC(=O)CCNc3ccnc(N)c3)cn2)cc1` [Compound 153]: the activation at 10 µM is under 30%.

Consider `COc1cnccc1NCCC(=O)Nc1cnn(CC(=O)N(C)CCOc2ccc(C)cc2)c1` [Compound 198], for which the activation at 10 µM was under 30%.

With `Cc1ccc(OCCN(C)C(=O)Cn2cc(NC(=O)CCNc3ccnc4nccn34)cn2)cc1` [Compound 227], the activation at 10 µM is under 30%.

Regarding `Cc1ccc(OCCN(C)C(=O)Cn2cc(NC(=O)CCNc3ncc(-c4ncc(C)o4)cn3)cn2)cc1` [Compound 294, N-(1-(2-(methyl (2-(p-tolyloxy)ethyl)amino)-2-oxoethyl)-1H-pyrazol-4-yl)-3-((5-(5-methyloxazol-2-yl)pyrimidin-2-yl)amino)propanamide], the activation at 10 µM was under 30%.

Take `Cc1nc(F)ccc1NCCC(=O)Nc1cnn(CC(=O)N(C)CCOc2cnn(C)c2)c1` [Compound 238, 3-[(6-fluoro-2-methyl-3-pyridyl)amino]-N-[1-[2-[methyl-[2-(1-methylpyrazol-4-yl)oxyethyl]amino]-2-oxo-ethyl]pyrazol-4-yl]propanamide]: the activation at 10 µM is under 30%.

With `Cc1ccc(OCCC(=O)Nc2cnn(CC(=O)N(C)CCOc3ccc(C(F)(F)F)cc3)c2)c(F)c1` [Compound 67], the activation at 10 µM was under 30%.

As to `Cc1ccc(OC[C@@H](C)N(C)C(=O)Cn2cc(NC(=O)CCNc3ccnc(F)n3)cn2)cc1` [Compound 268], the activation at 10 µM is over 50%.

On to `Cc1ccc(OCCN(C)C(=O)Cn2cc(NC(=O)CCNc3ncc(C)cn3)cn2)cc1` [Compound 93], for which the activation at 10 µM is under 30%.

In the case of `Cc1ccc(OCCN(C)C(=O)Cn2cc(NC(=O)CCOc3cccc(C(C)C)n3)cn2)cc1` [Compound 108], the activation at 10 µM is under 30%.

On to `Cc1ccc(OCCN(C)C(=O)Cn2cc(NC(=O)CCNc3ccnc(F)c3Cl)cn2)cc1` [Compound 190], for which the activation at 10 µM was under 30%.

Consider `Cc1ccc(OCCN(C)C(=O)Cn2cc(NC(=O)CCOc3ccnc(N)n3)cn2)cc1` [Compound 99], for which the activation at 10 µM is over 50%.

Take `Cc1ccc(OCCN(C)C(=O)Cn2cc(NC(=O)CCNc3cc(Cl)ccn3)cn2)cc1` [Compound 145]: the activation at 10 µM was under 30%.

For `Cc1ccc(OCCN(C)C(=O)Cn2cc(NC(=O)CCNc3cnc(F)c(Cl)c3)cn2)cc1` [Compound 184], the activation at 10 µM was over 50%.

In the case of `COc1ccccc1OCCC(=O)Nc1cnn(CC(=O)N(C)CCOc2ccc(C)cc2)c1` [Compound 28], the activation at 10 µM was over 50%.

As to `CNC(=O)c1cnc(NCCC(=O)Nc2cnn(CC(=O)N(C)CCOc3ccc(C)cc3)c2)nc1` [Compound 211], the activation at 10 µM is under 30%.

With `Cc1ccc(OCCN(C)C(=O)Cn2cc(NC(=O)CCNc3cncnc3C(C)C)cn2)cc1` [Compound 257], the activation at 10 µM was under 30%.

In the case of `CCc1ccc(OCCN(C)C(=O)Cn2cc(NC(=O)CCOC3CCCCC3)cn2)cc1` [Compound 5], the activation at 10 µM was in the range of 30 to 50%.

In the case of `C=Cc1cncc(F)c1NCCC(=O)Nc1cnn(CC(=O)N(C)CCOc2ccc(C)cc2)c1` [Compound 251], the activation at 10 µM is over 50%.

With `Cc1ccc(OCCN(C)C(=O)Cn2cc(NC(=O)CCOc3ccnc(Cl)c3)cn2)cc1` [Compound 8], the activation at 10 µM was over 50%.

In the case of `Cc1ccc(OCCC(=O)Nc2cnn(CC(=O)N(C)CCOc3ccc(Cl)cc3)c2)c(F)c1` [Compound 71], the activation at 10 µM was under 30%.

Regarding `CN(CCOc1cc(Cl)ccn1)C(=O)Cn1cc(NC(=O)CCOc2ccccc2F)cn1` [Compound 47], the activation at 10 µM is under 30%.

On to `Cc1ccc(OCCN(C)C(=O)Cn2cc(NC(=O)CCN(C(=O)OC(C)(C)C)c3ccccc3)cn2)cc1` [Compound 23], for which the activation at 10 µM was under 30%.

Regarding `Cc1ccc(OCCN(C)C(=O)Cn2cc(NC(=O)CCNc3c(F)cncc3C(C)C)cn2)cc1` [Compound 231], the activation at 10 µM was over 50%.

As for `C#CCCC1(CCC(=O)Nc2ccc(OCCC(=O)Nc3cnn(CC(=O)N(C)CCOc4ccc(C)cc4)c3)nc2)N=N1` [Compound 234], the activation at 10 µM was over 50%.

With `Cc1ccc(OCCN(C)C(=O)Cn2cc(NC(=O)CCOc3cccnc3N)cn2)cc1` [Compound 233], the activation at 10 µM is over 50%.

Consider `Cc1ccc(OCCN(C)C(=O)Cn2cc(NC(=O)CCNc3cnc(F)cc3C)cn2)cc1` [Compound 179], for which the activation at 10 µM was over 50%.

Turning to `Cc1ccc(OCCC(=O)Nc2cnn(CC(=O)N(C)CCOc3cccc(OC(F)(F)F)c3)c2)c(F)c1` [Compound 69], the activation at 10 µM was under 30%.

As for `Cc1ccc(OCCN(C)C(=O)Cn2cc(NC(=O)CCNc3ccc(C#N)cn3)cn2)cc1` [Compound 157], the activation at 10 µM was under 30%.

With `Cc1ccc(OCCN(C)C(=O)Cn2cc(NC(=O)CCOc3cnccc3C(F)(F)F)cn2)cc1` [Compound 12], the activation at 10 µM is under 30%.

On to `COc1ccc(OCCN(C)C(=O)Cn2cc(NC(=O)CCNc3ccnc4ncnn34)cn2)cc1` [Compound 124], for which the activation at 10 µM was in the range of 30 to 50%.

Regarding `Cc1ccc(OCCN(C)C(=O)Cn2cc(NC(=O)CCOc3cccnc3NS(C)(=O)=O)cn2)cc1` [Compound 273, N-(1-(2-(methyl(2-(p-tolyloxy)ethyl)amino)-2-oxoethyl)-1H-pyrazol-4-yl)-3-((2-(methylsulfonamido)pyridin-3-yl)oxy)propanamide], the activation at 10 µM was under 30%.

Staying with this experiment, now noted: 18 h, read-out: Activity (IRE1-XBP1s activation, luminescence as % signal relative to thapsigargin, % Tg).
Consider `CN(CCOc1ccccn1)C(=O)Cn1cc(NC(=O)CCOc2ccccc2F)cn1` [Compound 43, 3-(2-fluorophenoxy)-N-(1-(2-(methyl(2-(pyridin-2-yloxy)ethyl)amino)-2-oxoethyl)-1H-pyrazol-4-yl)propanamide], for which the activation at 10 µM is under 30%.

For the compound `Cc1ccc(OCCN(C)C(=O)Cn2cc(NC(=O)C(C)(C)C(=O)Nc3ncc(F)cn3)cn2)cc1` [Compound 258, N1-(5-fluoropyrimidin-2-yl)-2,2-dimethyl-N3-(1-(2-(methyl(2-(p-tolyloxy)ethyl)amino)-2-oxoethyl)-1H-pyrazol-4-yl)malonamide], the activation at 10 µM is under 30%.
